Reference: patent publication US6512000B1, “Aminocarbonyl-substituted benzimidazoles having tryptase-inhibitory activity” (Boehringer Ingelheim Pharma KG, priority 1999, dated 2003)
Counter-ions that a name gives are not always drawn.

What was measured:
rh beta tryptase = biological target: T1, rh beta tryptase (Homo sapiens, UniProt P20231); assay: Tryptase inhibition test (cleavage of N-p-tosyl-Gly-Pro-Lys-para-nitroaniline, p-nitroaniline measured at 405 nm); type: biochemical; details: concentration at which 50% of the tryptase enzyme activity is inhibited; substrate 0.6 mM, pH 7.4, 37° C.
T1 construct: purchased Promega
T1 sequence (P20231 31-275): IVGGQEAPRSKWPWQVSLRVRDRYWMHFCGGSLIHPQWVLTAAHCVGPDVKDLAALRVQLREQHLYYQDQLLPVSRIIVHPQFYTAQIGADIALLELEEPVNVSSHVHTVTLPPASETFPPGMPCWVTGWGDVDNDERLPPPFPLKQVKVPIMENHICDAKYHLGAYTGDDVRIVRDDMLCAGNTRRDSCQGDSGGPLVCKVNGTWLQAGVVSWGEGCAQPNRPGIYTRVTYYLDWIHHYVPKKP
In short: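 Recombinant human beta tryptase (0.91 U/ml) in 100 mM Tris HCl pH 7.4 with 5 mM calcium and 100 mg/ml heparin; compounds pre-incubated 5 min, then 0.6 mM tosyl-Gly-Pro-Lys-pNA added, 5 min at 37 °C. p-Nitroaniline read at 405 nm; % inhibition at 10 μM, IC50 determined when inhibition exceeded 70%.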

IC50 (rh beta tryptase) [nM] | melting point [°C] | Compound
153 | 140 to 148 | Cl.Cl.Cn1c(CCc2ccc(C(=N)N)cc2)nc2cc(C(=O)N(CCN(Cc3ccccc3)Cc3ccccc3)C3CCCCC3)ccc21 [Example 2, 2-[2-(4-Amidinophenyl)ethyl]-1-methyl-benzimidazol-5-yl-carboxylic Acid-N-[2-(N,N-dibenzylamino)ethyl]-N-cyclohexyl-amide-dihydrochloride]
– | 158 | CC(=O)NCCCCC(NC(=O)c1ccc2c(c1)nc(CCc1ccc(C(=N)N)cc1)n2C)C(=O)O (centres unmarked) (as salt: formate) [Example 34]
– | 204 to 210 | CC(C)CN(CCC(=N)N)C(=O)c1ccc2c(c1)nc(CCc1ccc(C(=N)N)cc1)n2C (as salt: hydrochloride) [Example 11, 2-[2-(4-Amidinophenyl)-ethyl]-1-methyl-benzimidazol-5-yl-carboxylic Acid-N-(2-amidinoethyl)-N-iso-butyl-amide-dihydrochloride]
– | > 220 | CN(C)CCN(C)C(=O)c1ccc2c(c1)nc(CCc1ccc(C(=N)N)cc1)n2C (as salt: hydrochloride) [Example 3, 2-[2-(4-Amidinophenyl)-ethyl]1l-methyl-benzimidazol-5-yl-carboxylic Acid-N-[2-(N,N-dimethylamino)-ethyl]-N-methyl-amide-dihydrochlonide]
